Data published in ChEMBL document CHEMBL4622937, “Design, synthesis, and biological evaluation of spiroindolines as novel inducers of oligodendrocyte progenitor cell differentiation-Use of a conformation-based hypothesis to facilitate compound design” (Bioorg Med Chem Lett, 2020).

Experiment: Induction of rat oligodendrocyte progenitor cells differentiation assessed as myelin basic protein expression level
Format: functional

SMILES | EC50
COC1(CN2CCC3(CC2)Cc2ccc(C(F)(F)F)cc2N3C)CCOCC1 | 54 nM
FC(F)(F)c1ccc2c(c1)CC1(CCN(CC3CCOCC3)CC1)N2 | 240 nM
CC(C)(C)OC(=O)CN1c2cc(C(F)(F)F)ccc2CC12CCN(CC1CCOCC1)CC2 | 15 nM
CN1c2ccc(C(F)(F)F)cc2CC12CCN(CC1CCOCC1)CC2 | 7100 nM
CC(=O)N1c2cc(C(F)(F)F)ccc2CC12CCN(CC1CCOCC1)CC2 | 60 nM
COCCN1CCC2(CC1)Cc1ccc(C(F)(F)F)cc1N2C | 250 nM
O=C1c2ccc(C(F)(F)F)cc2NC12CCN(CC1CCOCC1)CC2 | 54 nM
COCCCN1CCC2(CC1)Cc1ccc(C(F)(F)F)cc1N2C | 240 nM
CN(C)C(=O)CN1c2cc(C(F)(F)F)ccc2CC12CCN(CC1CCOCC1)CC2 | 700 nM
CN1c2cc(Cl)ccc2CC12CCN(CC1CCOCC1)CC2 | 19 nM
OCCN1c2cc(C(F)(F)F)ccc2CC12CCN(CC1CCOCC1)CC2 | 74 nM

Compounds with a lower EC50, results first:

EC50 | SMILES
10 nM | CN1c2cc(F)ccc2CC12CCN(CC1CCOCC1)CC2
3.2 nM | O=C1c2cc(C(F)(F)F)ccc2NC12CCN(CC1CCOCC1)CC2
13 nM | FC(F)(F)c1ccc2c(c1)N(CC1CCOCC1)C1(CCN(CC3CCOCC3)CC1)C2
9.3 nM | CN1c2ccc(C(F)(F)F)cc2C(=O)C12CCN(CC1CCOCC1)CC2
4.7 nM | CN1c2cc(C(F)(F)F)ccc2CC12CCN(CC1CCC(F)(F)CC1)CC2
1.9 nM | CN1c2cc(C(F)(F)F)ccc2CC12CCN(CC1CCOCC1)CC2
3.7 nM | FC(F)(F)c1ccc2c(c1)N(Cc1ccccc1)C1(CCN(CC3CCOCC3)CC1)C2
5.8 nM | CN1c2cc(C(F)(F)F)ccc2CC12CCN(CC1(O)CCOCC1)CC2
1.4 nM | CN1c2cc(C(F)(F)F)ccc2C(=O)C12CCN(CC1CCOCC1)CC2
